Assay results reported in article PMC12603070, “A high-throughput screening approach to discover potential colorectal cancer chemotherapeutics: repurposing drugs to identify novel disruptors of 14-3-3 proteins” (Cell Death & Disease, 2025).
Where two headings read alike, the source gives them in different places.

Key:
NIH-3T3 cells = test: Hoechst/propidium iodide cell death assay in NIH-3T3; format: cell-based; conditions: for cytotoxicity at 20 µM: Mus musculus, NIH3T3, 24 h, 24 h, read-out: Percentage of cell death % 24h NIH3t3
Description: (§1) A high-content imaging system (PerkinElmer; Operetta CLS), was used to quantify cell death and apoptosis by calculating the number of propidium iodide-positive cells relative to Hoechst-positive cells, and the number of Annexin V-positive cells relative to Hoechst-positive cells, respectively.

Caco-2 cells = format: cell-based
Description: as §1

[1] = target: T1, 14-3-3ζ:BAD-112-136F interactions (Homo sapiens, UniProt P63104); test: BRET sensor screen for disruption of 14-3-3ζ-Rluc8:BAD-112-136F-mCitrine in living NIH-3T3 cells; format: cell-based, murine; parameters: inhibition: dose or concentration left out as unconfirmed; conditions: for inhibition / inhibition at 20 µM: NIH3T3, 3 h; for inhibition: NIH-3T3 cells
T1 construct: expressed in transfected cells; host or cells: NIH-3T3 fibroblasts, bi-directional pBI-CMV1 plasmid
T1 sequence (P63104 1-245): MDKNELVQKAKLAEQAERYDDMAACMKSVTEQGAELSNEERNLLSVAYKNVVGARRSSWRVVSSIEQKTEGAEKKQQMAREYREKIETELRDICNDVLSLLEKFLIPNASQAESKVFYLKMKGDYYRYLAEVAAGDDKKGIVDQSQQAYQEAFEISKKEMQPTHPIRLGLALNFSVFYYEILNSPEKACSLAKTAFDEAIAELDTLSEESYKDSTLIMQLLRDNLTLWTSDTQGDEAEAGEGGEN
In short: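 NIH-3T3 cells were transfected with the BRET sensor two days beforehand, then replated on poly-L-ornithine-coated plates and grown 24 h at 37 °C. Medium was then replaced with Krebs buffer (pH 7.4). Z′-score was calculated to judge HTS robustness.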

[2] = system: HT-29 and Caco-2 CRC cells; test: Cell death in CRC cells, statements covering both HT-29 and Caco-2 (screen at 20 µM, dose-response); format: cell-based, human; conditions: dose-response 2.5-20 µM in HT-29 and Caco-2
Experimental: Cells were plated at a density of 20,000 cells/well into 96-well plates (PerkinElmer; #6055302) and incubated overnight at 37 °C before the addition of the drugs. One hour prior to imaging, Hoechst 33342 (Invitrogen, #H3570) and propidium iodide (Invitrogen; #P3566) were added to the wells to achieve final concentrations of 50 ng/ml and 0.5 μg/ml, respectively. To measure apoptosis, AlexaFluor 488-conjugated Annexin V (ThermoFisher, Massachusetts, USA; #A13201) was also added at a dilution of 1:400 from the commercial stock. A high-content imaging system (PerkinElmer; Operetta CLS), was used to quantify cell death and apoptosis by calculating the number of propidium iodide-positive cells relative to Hoechst-positive cells, and the number of Annexin V-positive cells relative to Hoechst-positive cells, respectively. To assess caspase-dependent apoptosis, cells were pre-treated for 30 min with the caspase inhibitor Z-VAD-FMK (BD Biosciences, New Jersey, USA; #550377; 20 μM) or the negative control Z-FA-FMK (BD Biosciences; #550411; 20 μM) prior to the incubation of drugs.

HT-29 cells = test: Hoechst/propidium iodide cell death assay in HT-29; format: cell-based, human; conditions: for %Cell death HT-29: time not given; for cytotoxicity at 20 µM: Homo sapiens
Description: as §1

[3] = target: T2, 14-3-3ζ-Rluc8:112-136F-mC complex (Homo sapiens, UniProt P63104); test: Co-immunoprecipitation of 14-3-3ζ-Rluc8:112-136F-mC complex; format: cell-based; conditions: NIH-3T3 expressing BRET sensor, 20 μM, 3 h, vs DMSO
T2 construct: expressed in transfected cells; host or cells: NIH-3T3 fibroblasts, bi-directional pBI-CMV1 plasmid
T2 sequence (P63104 1-245): T1 sequence (P63104 1-245)
Experimental: NIH-3T3 cells were plated in 10 cm culture dishes at a density of 550,000 cells per dish. Transfection was conducted 48 h post-seeding. At 48 h post-transfection, DMSO or FTY-720 (20 μM) was added to the culture media and incubated with cells expressing the BRET-sensor for 3 h. Cell lysates were collected using RIPA buffer (0.9% NaCl, 1% v/v triton X-100, 0.5% sodium deoxycholate, 0.1% SDS, and 0.6% tris base), supplemented with protease inhibitor cocktail (Sigma-Aldrich; #P8340). The protein concentration was determined using the Bradford assay. Equal amounts of protein (100 μg) were subjected to immunoprecipitation using 1 μg anti-GFP antibody per sample (Invitrogen; #A-11120) and protein A/G magnetic beads (Thermo Fisher Scientific, Massachusetts, USA; #80104G), according to the manufacturer’s instructions. Antibodies against GFP were used to precipitate mCitrine due to the high degree of sequence homology. Immunoprecipitated proteins were eluted by boiling the beads in 1 X Laemmli protein sample buffer (Bio-Rad, California, USA; #1610747) for 5 min. Eluted samples were resolved in 10% SDS-PAGE gels and transferred to PVDF membranes (Bio-Rad, California, USA; #10026933) using the Trans-Blot Turbo transfer system (Bio-Rad). […] Protein bands were detected using Clarity Max western ECL substrate. […]

[4] = hits from the primary screen, read-out: BRET reduction on NIH-3T3
[5] = NIH-3T3 expressing BRET sensor, 20 µM, 3 h, read-out: BRET reduction on NIH-3T3
[6] = HT-29, 24 h, 20 µM, 24 h, read-out: Percentage of cell death % 24h HT-29
[7] = HT-29, 48 h, HT-29, 48h, 20 μM, read-out: Percentage of cell death % 48h, HT-29

inhibition [1, 4] | inhibition at 20 µM [1, 5] | inhibition at 20 µM ([1]; read-out: BRET reduction on NIH-3T3, NIH-3T3 cells, hits from the primary screen) | inhibition at 20 µM ([1]; read-out: BRET reduction on NIH-3T3, NIH-3T3 expressing BRET sensor, 20 µM, 3 h) | Abundance of 14-3-3ζ-Rluc8 within the co-immunoprecipitated complex [3] | Compound | cytotoxicity at 20 µM (NIH-3T3 cells) | Percentage of cell death % 48h, NIH3T3 (NIH-3T3 cells) | %Cell death Caco-2 (Caco-2 cells; Caco-2) | Lowest concentration that significantly induced cell death [2] | %Cell death HT-29 (HT-29 cells; HT-29) | cytotoxicity at 20 µM (HT-29 cells; [6]) | cytotoxicity at 20 µM (HT-29 cells; [7]) | Percentage of cell death % 24h CACO-2 (Caco-2 cells; 20 µM, 24 h) | Percentage of cell death % 48h, Caco-2 (Caco-2 cells; Caco-2, 48h, 20 μM) | %Cell death Caco-2 (Caco-2 cells; Caco-2, time not given, text says 48 h) | Effect of Z-VAD-FMK on propidium iodide incorporation (Caco-2 cells; lomitapide-treated Caco-2 cells, 10 μM, 48 h) | Effect on BRET, dose-response ([1]; NIH-3T3 expressing BRET sensor, 3 h post-treatment)
53.8% | 53.8% |  |  |  | OC1(c2ccc(Cl)c(C(F)(F)F)c2)CCN(CCCC(c2ccc(F)cc2)c2ccc(F)cc2)CC1 [Penfluridol] | 85.7% | 79.942% | 90.0% | 5 µM | 92.2% | 77.5% | 92.2% |  |  |  |  | 
40.8% | 40.8% |  |  |  | O=C(NC1CCN(CCCCC2(C(=O)NCC(F)(F)F)c3ccccc3-c3ccccc32)CC1)c1ccccc1-c1ccc(C(F)(F)F)cc1 [Lomitapide] | 90.2% | 77.6841% |  | 5 µM | 72.9% | 29.5% | 72.9% | 66.0871% | 81.7295% | 81.7% | no effect | 
 |  | 34.9% | 34.9% | reduced | CCCCCCCCc1ccc(CCC(N)(CO)CO)cc1 [Fingolimod (FTY720), Fingolimod] | 89.8% | 86.4299% | 67.9% |  | 69.1% | 13.5% | 69.1% |  |  |  |  | significantly reduced BRET in a dose-dependent manner
45.6% | 45.6% |  |  |  | CC(C)(C)c1ccc(C(O)CCCN2CCC(C(O)(c3ccccc3)c3ccccc3)CC2)cc1 (stereo not shown) [Terfenadine] | 85.2% | 73.0215% | 79.7% | 5 µM | 89.6% | 81.9% | 89.6% |  |  |  |  | 
